Reference: US20110053934A1, “COMPOUNDS AND METHODS OF TREATMENT” (GLAXOSMITHKLINE LLC, priority 2007, published 2011)
Like-named read-outs stand apart in the source and are kept apart here.

Legend:
c-src = c-src (Homo sapiens, UniProt P12931); assay: c-src kinase inhibition; format: biochemical; settings: read-out: c-src, range of activity, pIC50 values (converted)
[1] = biological target: T1, ret kinase (intracellular portion of ret, amino acids 713-1072 of the short isoform) (Homo sapiens, UniProt P07949); assay: Ret kinase enzyme assay; format: biochemical
T1 sequence (P07949 713-1072 isoform P07949-2): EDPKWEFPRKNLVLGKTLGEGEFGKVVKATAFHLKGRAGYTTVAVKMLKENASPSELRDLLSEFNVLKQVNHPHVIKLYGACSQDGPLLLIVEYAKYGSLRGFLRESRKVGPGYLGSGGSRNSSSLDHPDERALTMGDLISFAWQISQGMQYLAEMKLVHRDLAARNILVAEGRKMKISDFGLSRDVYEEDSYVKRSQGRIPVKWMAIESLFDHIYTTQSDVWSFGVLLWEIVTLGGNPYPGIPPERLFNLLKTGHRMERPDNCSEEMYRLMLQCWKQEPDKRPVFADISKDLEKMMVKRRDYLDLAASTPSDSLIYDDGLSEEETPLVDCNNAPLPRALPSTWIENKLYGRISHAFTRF
Procedure: The ret kinase assay used the intracellular portion of ret (amino acids 713-1072 of the short isoform) produced in SF9 insect cells and purified on a nickel column. The assay was performed in a 45 μL volume with increasing concentrations of tyrosine kinase inhibitor (TKI) in triplicate in a 96-well plate format as follows: • 4.5 μL 500 mM Morpholinopropanesulfonic acid, pH 7.4 • 4.5 μL 100 μM adenosine triphosphate • 4.5 μL 250 mM MgCl2 • 1.0 μL γ-ATP^33 (1 microCi)(3000 Ci/mMol) • 2.04 (5 mg/ml) poly Glutamic acid-Tyrosine (Sigma (P-0275)) • 234H20 • 1.04 recombinant ret (100 ng) • 4.5 μL 10× Tyrosine kinase inhibitor
The components were incubated in triplicate for 30 minutes at room temperature within a 96-well plate in triplicate. The reaction was stopped by adding 45 μL 0.5% H3PO4 to each well. 75 μL of the reaction mixture was spotted onto phosphocellulose paper (Millipore, cat #MAPHN0B50) and was washed 3 times with 2004 0.5% H3PO4. Each phosphocellulase filter was transferred into a separate scintillation vial, 1 ml cytoscint fluid was added, and the sample counted on a Packard 1900TR liquid scintillation analyzer for 1 minute.
Concentrations of Example 1 tested in the ret enzyme kinase assay to determine the IC50 were 0, 0.5, 1, 5, 10, 50, 100, and 250 nM.

VEFGR2 = VEFGR2 (Homo sapiens, UniProt P35968); assay: VEFGR2 kinase inhibition; format: biochemical; settings: read-out: VEFGR2, range of activity, pIC50 values (converted)
Sequence of VEFGR2 (P35968 20-1356): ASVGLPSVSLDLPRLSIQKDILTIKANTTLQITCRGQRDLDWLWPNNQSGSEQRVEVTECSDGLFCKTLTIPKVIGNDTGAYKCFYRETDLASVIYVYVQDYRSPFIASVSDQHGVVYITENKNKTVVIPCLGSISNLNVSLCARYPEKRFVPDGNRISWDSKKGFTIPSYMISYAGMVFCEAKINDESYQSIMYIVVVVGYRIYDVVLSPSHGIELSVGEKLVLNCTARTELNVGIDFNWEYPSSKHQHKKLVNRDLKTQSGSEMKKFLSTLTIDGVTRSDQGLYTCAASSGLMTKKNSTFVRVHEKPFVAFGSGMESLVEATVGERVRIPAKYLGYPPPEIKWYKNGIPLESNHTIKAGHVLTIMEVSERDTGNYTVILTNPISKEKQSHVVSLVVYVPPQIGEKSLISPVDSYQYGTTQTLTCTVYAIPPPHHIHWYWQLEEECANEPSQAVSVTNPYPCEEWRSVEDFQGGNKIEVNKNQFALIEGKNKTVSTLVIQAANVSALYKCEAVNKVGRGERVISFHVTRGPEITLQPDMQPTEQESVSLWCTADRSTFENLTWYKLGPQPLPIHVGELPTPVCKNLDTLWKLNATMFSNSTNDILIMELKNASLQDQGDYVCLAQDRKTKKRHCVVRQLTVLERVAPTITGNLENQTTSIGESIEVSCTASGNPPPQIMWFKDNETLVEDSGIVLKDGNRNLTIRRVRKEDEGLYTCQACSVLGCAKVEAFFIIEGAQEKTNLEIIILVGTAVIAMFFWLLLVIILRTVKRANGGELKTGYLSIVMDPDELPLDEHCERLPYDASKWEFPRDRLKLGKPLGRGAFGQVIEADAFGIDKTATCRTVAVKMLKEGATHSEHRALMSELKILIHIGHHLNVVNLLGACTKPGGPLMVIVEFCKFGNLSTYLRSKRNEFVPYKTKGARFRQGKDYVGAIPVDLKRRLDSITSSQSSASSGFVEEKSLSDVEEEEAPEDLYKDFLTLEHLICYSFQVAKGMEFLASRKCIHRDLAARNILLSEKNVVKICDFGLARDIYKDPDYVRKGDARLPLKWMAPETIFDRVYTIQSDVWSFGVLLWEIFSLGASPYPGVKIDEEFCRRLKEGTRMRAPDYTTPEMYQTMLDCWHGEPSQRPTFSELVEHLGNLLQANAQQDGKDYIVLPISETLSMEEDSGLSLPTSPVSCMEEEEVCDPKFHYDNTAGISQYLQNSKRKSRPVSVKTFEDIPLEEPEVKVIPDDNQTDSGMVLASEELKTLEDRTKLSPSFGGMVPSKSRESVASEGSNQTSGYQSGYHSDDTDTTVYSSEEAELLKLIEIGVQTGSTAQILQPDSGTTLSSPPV

[2] = test system: TT cells, a medullary thyroid cancer cell line with constitutively activated ret; assay: MTT assay, TT cell proliferation; format: cell-based; settings: Homo sapiens, 168 hours with compound
Procedure: The potency of the compound of the invention was tested for its ability to inhibit cell proliferation and cell viability.

[3] = ret kinase enzyme assay, read-out: Ret, range of activity, pIC50 values (converted)

Sequence of c-src (P12931 whole entry, species assumed, the tested form may be a part, canonical isoform): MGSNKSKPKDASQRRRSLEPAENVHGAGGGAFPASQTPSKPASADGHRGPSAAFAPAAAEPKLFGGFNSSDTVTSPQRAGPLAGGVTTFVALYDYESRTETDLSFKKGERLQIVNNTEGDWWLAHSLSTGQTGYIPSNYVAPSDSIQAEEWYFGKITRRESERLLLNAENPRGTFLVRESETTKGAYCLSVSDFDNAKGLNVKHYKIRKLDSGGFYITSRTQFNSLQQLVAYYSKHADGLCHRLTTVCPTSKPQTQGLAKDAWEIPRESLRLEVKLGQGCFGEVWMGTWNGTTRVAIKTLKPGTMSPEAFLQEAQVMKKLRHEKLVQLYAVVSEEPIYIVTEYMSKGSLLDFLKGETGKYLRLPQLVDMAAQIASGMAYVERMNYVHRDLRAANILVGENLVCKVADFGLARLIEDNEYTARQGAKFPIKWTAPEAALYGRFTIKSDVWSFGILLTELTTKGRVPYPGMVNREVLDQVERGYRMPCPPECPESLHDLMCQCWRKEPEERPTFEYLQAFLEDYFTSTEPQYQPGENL

Row | Structure (SMILES) | IC50 (c-src) [nM] | IC50 [1, 3] [nM] | IC50 (VEFGR2) [nM] | IC50 [1] [nM] | IC50 [2] [nM]
1 | Oc1cccc(Nc2ccnc3cc(-c4ccccn4)ccc23)c1 [Example 1, 3-{[7-(2-pyridinyl)-4-quinolinyl]amino}phenol] | < 10 | < 10 | – | – | –
2 | Oc1cc(Nc2ccnc3cc(-c4cc5ccccc5o4)ccc23)ccc1Br [Example 3, 5-{[7-(1-benzofuran-2-yl)-4-quinolinyl]amino}-2-bromophenol] | 10 to 100 | 10 to 100 | < 10 | – | –
3 | Oc1cc(Nc2ccnc3cc(-c4cccc(CNCCN5CCOCC5)c4)ccc23)c(F)cc1Cl [Example 4, 2-chloro-4-fluoro-5-({7-[3-({[2-(4-morpholinyl)ethyl]amino}methyl)phenyl]-4-quinolinyl}amino)phenol] | < 10 | – | < 10 | 10 to 100 | –
4 | CS(=O)(=O)c1ccc2nccc(Nc3cc(O)c(F)cc3Cl)c2c1 [Example 6, 4-chloro-2-fluoro-5-{[6-(methysulfonuyl)-4-quinolinyl]amino}phenol] | – | < 10 | – | – | < 1000
5 | OCc1nc(-c2ccc3c(Nc4cc(O)c(F)cc4Cl)ccnc3c2)cs1 [Example 7, 4-chloro-2-fluoro-5-({7-[2-(hydroxymethyl)-1,3-thiazol-4-yl]-4-quinolinyl}amino)phenol] | < 10 | 10 to 100 | – | – | –
6 | Cc1ccc(O)cc1Nc1ccnc2ccc(C(=O)NC(C)C)cc12 [Example 10] | – | 10 to 100 | 100 to 1000 | – | –
